Like-named read-outs stand apart in the source and are kept apart here.
Key:
[1] = cited from earlier work
[2] = system: DENV2 strain 16681 in primary human MDMΦ; set-up: method as in PMID 23070155; conditions: MDMΦ cells, same system; read-out: IC50 for DENV inhibition; cited from earlier work
[3] = system: DENV2 strain 16681 in primary human MDMΦ; experiment: DENV primary MDMΦ antiviral assay (infectious titer by plaque assay); assay type: cell-based, dengue virus; conditions: Dengue virus, DENV2; dengue-infected MDMΦ, 7 donors; read-out: IC50 for DENV inhibition (infectious virus titer)
Experimental: each well was scored as either positive (≥ 5 stained cells) or negative. TCID50 values were calculated according to the method of Reed and Muench.8
5.7 DENV Primary MDMΦ Antiviral Assay
DENV2 strain 16681 (a gift from Prof. E. Gould, Centre for Ecology and Hydrology, Oxford, United Kingdom) was propagated in the C6/36 cell line. In the antiviral assay, MDMΦ cells (7 donors) were seeded in a 24-well plate at a density of 1× 10^6 cells/well in 1 mL of growth media. The cells were inoculated for 2 h with DENV2 16681 strain at an MOI of 1. […]
The infectious DENV titres in supernatants collected were evaluated by plaque assay as described previously.9 Brieﬂy, LLC-MK2 cells were seeded in conﬂuent monolayers in a 12-well plate. Four 10-fold dilutions of each supernatant to be analyzed were prepared in minimum essential media (MEM, Gibco), supplemented with 100 µg mL−1 streptomycin, 100 U mL−1 penicillin and 10% (v/v) FCS. […]
After 1 d, plaques were observed and counted from the underside of the plate by eye. […]
18 healthy male BALB/c mice (8 – 12 weeks old) weighing between 20 and 35 g were procured from ACTREC, Mumbai, India. […] Temperature and humidity were recorded by an auto-controlled data logging system and maintained at 22± 3◦C and 55± 15% humidity, respectively. […]

rat liver ER GluII = target: T1, rat liver ER GluII (Rattus norvegicus, UniProt A0A8I6GFL3); experiment: ER α-glucosidase II inhibition with native-like fluorescently labelled glycan substrate (HPLC); assay type: biochemical
T1 construct: Rat liver ER, II; from tissue; host or cells: liver of male Wistar rats
Experimental: % Inhibition (C) Glc1→ Glc0
Supplemental Figure 1: In vitro inhibition of GluII by 4. Enzyme activity assays were carried out using rat liver ER GluII with either α-p-nitrophenylglucoside ( α-PNPG, A) or ﬂuorescently labelled glycan ( B and C) as substrate. The curves show the relationship between ToP-DNJ 4 concentration and inhibition of the enzymatic activity. The iminosugar inhibits the enzymatic catalysis of the reactions indepen-dent of substrate, but with diﬀering IC 50 values: 9.0 µm for α-PNPG; 14 µm for Glc2Man7GlcNAc2; 56 µm for Glc1Man7GlcNAc2. […]
4 Enzyme Inhibition Assays
All rat enzymes were isolated from 18-week-old, male Wistar rats, while human lysosomal α-glucosidase was obtained in commercially available form from Sanoﬁ Genzyme. Inhibition of isolated glucosidases was evaluated as described previously. 3 Brieﬂy, maltase, isomaltase, sucrase, and cellobiase were used as partially puriﬁed tissue extracts. Inhibition assays for each enzyme were performed with the respective natural substrate, and release of d-glucose measured by Glucose B-test (Wako Diagnostics). Assays of rat ER α-glucosidase II and human lysosomal α-glucosidase inhibition were conducted with α-p-nitrophenylglucoside as substrate; 400 mm Na2CO3 was added to quench these reactions, and the extent of hydrolysis was evaluated as absorbance at 400 nm by spectrophotometer. […]

T1 sequence (A0A8I6GFL3 33-944): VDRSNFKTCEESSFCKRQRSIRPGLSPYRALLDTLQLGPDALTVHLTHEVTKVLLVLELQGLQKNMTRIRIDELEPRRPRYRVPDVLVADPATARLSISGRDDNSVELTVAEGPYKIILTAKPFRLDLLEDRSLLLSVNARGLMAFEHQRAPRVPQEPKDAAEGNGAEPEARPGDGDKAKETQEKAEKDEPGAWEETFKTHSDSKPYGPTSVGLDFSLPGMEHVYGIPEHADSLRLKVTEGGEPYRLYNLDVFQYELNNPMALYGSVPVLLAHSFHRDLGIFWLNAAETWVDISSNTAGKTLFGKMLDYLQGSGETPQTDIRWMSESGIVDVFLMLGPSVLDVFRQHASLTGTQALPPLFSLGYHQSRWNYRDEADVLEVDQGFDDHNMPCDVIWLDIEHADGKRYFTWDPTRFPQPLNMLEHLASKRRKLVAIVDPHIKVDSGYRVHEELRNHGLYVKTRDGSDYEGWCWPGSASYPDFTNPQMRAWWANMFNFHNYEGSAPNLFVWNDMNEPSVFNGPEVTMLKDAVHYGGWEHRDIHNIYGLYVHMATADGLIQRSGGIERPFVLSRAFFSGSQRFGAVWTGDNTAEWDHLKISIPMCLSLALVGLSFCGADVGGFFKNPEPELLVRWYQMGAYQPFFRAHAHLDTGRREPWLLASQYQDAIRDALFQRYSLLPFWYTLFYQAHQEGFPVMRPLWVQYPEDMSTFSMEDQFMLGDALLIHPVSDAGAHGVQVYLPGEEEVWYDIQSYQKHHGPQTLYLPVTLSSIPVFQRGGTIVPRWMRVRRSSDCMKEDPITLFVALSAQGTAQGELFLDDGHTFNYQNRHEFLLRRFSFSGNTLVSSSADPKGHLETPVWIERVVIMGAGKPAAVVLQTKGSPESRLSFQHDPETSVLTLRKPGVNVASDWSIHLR
T1 sequence (A0A8I6ADW9 1-525 partner): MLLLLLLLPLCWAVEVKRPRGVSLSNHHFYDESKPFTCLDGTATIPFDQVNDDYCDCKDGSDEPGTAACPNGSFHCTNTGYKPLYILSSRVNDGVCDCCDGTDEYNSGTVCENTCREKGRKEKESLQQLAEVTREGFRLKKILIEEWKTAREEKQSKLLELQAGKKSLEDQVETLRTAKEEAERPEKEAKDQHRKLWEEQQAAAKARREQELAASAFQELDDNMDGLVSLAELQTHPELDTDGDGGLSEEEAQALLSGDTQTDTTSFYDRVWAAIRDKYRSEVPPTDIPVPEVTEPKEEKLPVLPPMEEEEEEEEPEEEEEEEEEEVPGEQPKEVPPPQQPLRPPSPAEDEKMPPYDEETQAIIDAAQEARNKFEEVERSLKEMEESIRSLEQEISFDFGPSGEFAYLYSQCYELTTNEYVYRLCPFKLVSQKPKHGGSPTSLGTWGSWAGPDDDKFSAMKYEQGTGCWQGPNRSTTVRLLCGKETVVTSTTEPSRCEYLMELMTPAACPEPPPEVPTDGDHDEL

Question: Which results are given for `CCCCN1CC(O)C(O)C(O)C1CO` [Compound 2, N-butyl-D-1-deoxynojirimycin, reference compound]?
Answer: plasma half-life [1]: 5 h; tissue in which compound is found in the highest amounts ([1]; renally excreted): highest amounts in the kidneys and bladder; IC50 [2]: 6 µM

Question: Which IC50 [3] does the source give for `Cc1c(C)c2c(c(C)c1OCCCCCN1CC(O)C(O)C(O)C1CO)CCC(C)(CCCC(C)CCCC(C)CCCC(C)C)O2` (stereo not drawn) [Compound 4, 5′-tocopheroxypentyl-DNJ] here?
Answer: 12.7 µM

Question: What about the IC50 (rat liver ER GluII; first GluII reaction, fluorescently labelled Glc2Man7GlcNAc1 substrate, read-out: IC50 for the conversion of diglucosylated to monoglucosylated glycan by GluII) of the same compound?
Answer: 14 µM

Question: And the IC50 (rat liver ER GluII; second GluII reaction, fluorescently labelled glycan substrate, read-out: IC50 for the conversion of monoglucosylated to nonglucosylated glycan by GluII)?
Answer: 56 µM
